{
  "source": "patent US20230057359A1",
  "about": "“NOVEL USE OF STEVIOL” (SUNTORY HOLDINGS LIMITED, priority 2019, published 2023)",
  "key": {"HepG2 cells [1]": {"test_system": "HepG2 cells", "test": "Fat accumulation test in hepatocytes (oil red staining, oleic acid)", "format": "cell-based", "details": "for Relative fat accumulation level (%): 0.2 mM oleic acid, 24 hours, DMSO=100%", "method": "Normal human subcutaneous preadipocytes were precultured using the growth medium in the same manner as in Example 1. The cells were detached using 0.25% trypsin-EDTA, seeded at 10,000 cells/100 μL/well to a 96-well plate using a growth medium, and cultured overnight in a CO2 incubator. On the next day, the medium was replaced with 100 μL of a differentiation medium supplemented with varying concentrations of steviol (12.5, 25, 50, 100 or 200 μg/mL, dissolved in 0.1% DMSO (final concentration)). The cells were cultured for 10 days in a CO2 incubator to induce their differentiation into adipocytes. On the fourth and seventh days after the differentiation induction, the medium was replaced with a fresh medium (100 μL) having the same composition as above. A differentiation medium supplemented with 25 mM LiCl (Cat. No. SML0559, Sigma-Aldrich Co., LLC) was used as a positive control, and a differentiation medium supplemented with 0.1% DMSO (final concentration) was used as a negative control. Cells cultured in a growth medium were used as an untreated control (Untreated). The cells thus cultured were subjected to oil red staining. Specifically, the cells were washed twice with 100 μL of DPBS (Cat. No. 14190250, Thermo Fisher Scientific Inc.). Then, the cells were fixed (room temperature, 10 min) in 100 μL of a 10% formalin solution (Cat. No. 061-00416, FUJIFILM Wako Pure Chemical Corp.). The cells were washed twice with 100 μL of DPBS, then incubated for 1 minute in 100 μL of 60% 2-propanol (Cat. No. 166-04836, FUJIFILM Wako Pure Chemical Corp.) that replaced the medium, and stained for 15 minutes in 100 μL of an oil red staining solution (Cat. No. 00625, Sigma-Aldrich Co., LLC) that replaced the 2-propanol solution. The cells were washed once with 100 μL of 60% 2-propanol and washed twice with 100 μL of DPBS. Then, cell images were taken in 100 μL of DPBS. After subsequent replacement with 120 μL of 100% 2-propanol, oil red was extracted by incubation for 5 minutes, and 100 μL of the extracts was transferred to each well of a fresh 96-well plate. Absorbance (520 nm) was measured using a plate reader (VARIOSKAN FLASH, Thermo Fisher Scientific Inc.), and a relative fat accumulation level was calculated. Significant difference of differentiation non-induced group vs differentiation induced group (negative control group) was tested (two-tailed), and P<0.05 was regarded as having significant difference. Also, significant difference of negative control group vs steviol addition group/positive control group was tested (two-tailed) by the Dunnett test, and P<0.05 was regarded as having significant difference. […] HepG2 cells were precultured using the growth medium in the same manner as in Example 5. The cells were detached using 0.25% trypsin-EDTA, seeded at 30,000 cells/100 μL/well to a 96-well plate using the growth medium, and cultured overnight in a CO2 incubator. On the next day, the medium was replaced with 100 μL of a test medium (DMEM (high glucose) supplemented with 0.2 mM oleic acid (Cat. No. 03008, Sigma-Aldrich), 10% FBS and 1% penicillin-streptomycin) supplemented with varying concentrations of steviol (12.5, 25, 50, 100 or 200 μg/mL, dissolved in 0.1% DMSO (final concentration)). The cells were cultured for 24 hours in a CO2 incubator. A test medium supplemented with 2 mM metformin (Cat. No. M2009, Tokyo Chemical Industry Co., Ltd.) was used as a positive control (Metformin), and a vehicle control composed of a test medium supplemented with 0.1% DMSO (final concentration) was used as a negative control (DMSO). Cells cultured in a test medium containing no oleic acid was used as an untreated control (Untreated). The cells thus cultured were subjected to oil red staining in the same manner as in Example 3, followed by photographing and calculation of a relative fat accumulation level. […]"}, "HepG2 cells [2]": {"test_system": "HepG2 cells", "test": "TG accumulation test in hepatocytes (Adipogenesis Assay Kit, oleic acid)", "format": "cell-based", "details": "0.2 mM oleic acid, 24 hours, DMSO=100%", "method": "HepG2 cells were precultured using the growth medium in the same manner as in Example 5. The cells were detached using 0.25% trypsin-EDTA, seeded at 30,000 cells/100 μL/well to a 96-well plate using the growth medium, and cultured overnight in a CO2 incubator. On the next day, the medium was replaced with 100 μL of a test medium (DMEM (high glucose) supplemented with 0.2 mM oleic acid (Cat. No. 03008, Sigma-Aldrich), 10% FBS and 1% penicillin-streptomycin) supplemented with varying concentrations of steviol (12.5, 25, 50, 100 or 200 μg/mL, dissolved in 0.1% DMSO (final concentration)). The cells were cultured for 24 hours in a CO2 incubator. A test medium supplemented with 2 mM metformin (Cat. No. M2009, Tokyo Chemical Industry Co., Ltd.) was used as a positive control (Metformin), and a vehicle control composed of a test medium supplemented with 0.1% DMSO (final concentration) was used as a negative control (DMSO). Cells cultured in a test medium containing no oleic acid was used as an untreated control (Untreated). The cells thus cultured were subjected to oil red staining in the same manner as in Example 3, followed by photographing and calculation of a relative fat accumulation level. An intracellular triglyceride (TG) level in cells separately cultured under the same conditions as in the cells employed in the oil red staining was quantified using Adipogenesis Assay Kit (BioVision Inc.) according to the manufacturer's protocol. Absorbance (570 nm) was measured using a plate reader (VARIOSKAN FLASH, Thermo Fisher Scientific Inc.), and a relative TG level was calculated. Significant difference of untreated group vs fat accumulation induction group (negative control group) was tested (two-tailed) by the Student's t test as to the relative fat accumulation level and the relative TG level, and P<0.05 was regarded as having significant difference. Also, significant difference of negative control group vs steviol addition group/positive control group was tested (two-tailed) by the Dunnett test, and P<0.05 was regarded as having significant difference. The results of the fat accumulation test are shown in Table 6 and FIG. 6, and the results of the TG accumulation test are shown in Table 7 and FIG. 7."}},
  "data": [
    {"smiles": "C=C1C[C@@]23CC[C@H]4[C@@](C)(CCC[C@@]4(C)C(=O)O)[C@@H]2CC[C@]1(O)C3", "note": "[Steviol, steviol]", "values": [
      {"measurement": "fat accumulation in HepG2 test (in words)", "setting": "HepG2 cells [1]; 12.5 to 200 μg/mL", "result": "suppressed fat accumulation in adipocytes in a concentration-dependent manner"},
      {"measurement": "Relative fat accumulation level (%)", "setting": "HepG2 cells [1]; steviol 12.5 μg/mL", "result": 98.9, "unit": "%"},
      {"measurement": "Relative fat accumulation level (%)", "setting": "HepG2 cells [1]; steviol 25 μg/mL", "result": 98.1, "unit": "%"},
      {"measurement": "Relative fat accumulation level (%)", "setting": "HepG2 cells [1]; steviol 50 μg/mL", "result": 86.4, "unit": "%"},
      {"measurement": "Relative fat accumulation level (%)", "setting": "HepG2 cells [1]; steviol 100 μg/mL", "result": 85.6, "unit": "%"},
      {"measurement": "Relative fat accumulation level (%)", "setting": "HepG2 cells [1]; steviol 200 μg/mL", "result": 83.0, "unit": "%"},
      {"measurement": "Relative TG level (%)", "setting": "HepG2 cells [2]; steviol 12.5 μg/mL", "result": 98.8, "unit": "%"},
      {"measurement": "Relative TG level (%)", "setting": "HepG2 cells [2]; steviol 25 μg/mL", "result": 90.0, "unit": "%"},
      {"measurement": "Relative TG level (%)", "setting": "HepG2 cells [2]; steviol 50 μg/mL", "result": 93.7, "unit": "%"},
      {"measurement": "Relative TG level (%)", "setting": "HepG2 cells [2]; steviol 100 μg/mL", "result": 89.4, "unit": "%"},
      {"measurement": "Relative TG level (%)", "setting": "HepG2 cells [2]; steviol 200 μg/mL", "result": 81.4, "unit": "%"}
    ]}
  ]
}
